≈ marks a conversion by molar mass, not a printed value.

The assay deals with CCRF-CEM. Description: In vitro inhibitory activity against CCRF-CEM human leukemia cells using cytotoxicity assay. In kind it is functional, cell-based.
The term IC50 denotes the concentration that gives 50% inhibition. `COC(=O)c1ccc(NCC2Cc3c(N)nc(N)nc3NC2=O)cc1` (centres undefined): the 50% inhibitory concentration (IC50) was > 20 µg/mL.

As to `COC(=O)c1ccc(CCC2Cc3c(N)nc(N)nc3NC2=O)cc1` (centres undefined), the IC50 is > 20 µg/mL.

Consider `Nc1nc(N)c2c(n1)NC(=O)C(CNc1ccc(C(=O)O)cc1)C2` (centres undefined), for which the IC50 is > 20 µg/mL.

Take `Nc1nc(N)c2c(n1)NC(=O)C(CNc1ccc(C(=O)NC(CCC(=O)O)C(=O)O)cc1)C2` (centres undefined): the IC50 was > 20 µg/mL.

Consider `CN(CC1Cc2c(N)nc(N)nc2NC1=O)c1ccc(C(=O)NC(CCC(=O)O)C(=O)O)cc1` (centres undefined), for which the IC50 is > 20 µg/mL.

In turn, `Nc1nc(N)c2c(n1)NC(=O)C(CCc1ccc(C(=O)O)cc1)C2` (centres undefined) displayed a concentration for half-maximal inhibition (IC50) of 6.7 µg/mL (≈ 20.5 µM).

As to `CN(CC1Cc2c(N)nc(N)nc2NC1=O)c1ccc(C(=O)O)cc1` (centres undefined), the half-inhibitory concentration (IC50) is > 20 µg/mL.

For the molecule `Nc1nc(N)c2c(n1)NC(=O)C(CCc1ccc(C(=O)NC(CCC(=O)O)C(=O)O)cc1)C2` (centres undefined), the concentration for half-maximal inhibition (IC50) is 39.2 µg/mL (≈ 85.9 µM).

Turning to `COC(=O)c1ccc(N(C)CC2Cc3c(N)nc(N)nc3NC2=O)cc1` (centres undefined), the half-inhibitory concentration (IC50) was > 20 µg/mL.

These data come from ChEMBL document CHEMBL1131308, “Synthesis and biological activity of 4-amino-7-oxo-substituted analogues of 5-deaza-5,6,7,8-tetrahydrofolic acid and 5,10-dideaza-5, 6,7,8-tetrahydrofolic acid” (J Med Chem, 1998).
